The target of this test is T1, human NK2 receptor (Homo sapiens, UniProt P21452).
T1 construct: purchased Perkin Elmer biosignal Inc. 6110510
T1 sequence (P21452 1-398): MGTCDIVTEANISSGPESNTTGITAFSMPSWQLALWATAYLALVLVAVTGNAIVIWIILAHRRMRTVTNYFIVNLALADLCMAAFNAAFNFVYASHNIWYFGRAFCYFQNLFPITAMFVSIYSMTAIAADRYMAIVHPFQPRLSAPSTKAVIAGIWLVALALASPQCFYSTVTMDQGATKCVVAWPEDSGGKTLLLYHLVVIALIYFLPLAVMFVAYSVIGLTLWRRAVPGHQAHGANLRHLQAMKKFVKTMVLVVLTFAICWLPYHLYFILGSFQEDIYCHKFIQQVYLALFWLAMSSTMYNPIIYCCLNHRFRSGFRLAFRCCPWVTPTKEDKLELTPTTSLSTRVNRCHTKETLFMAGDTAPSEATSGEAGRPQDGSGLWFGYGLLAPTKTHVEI
In words: [3H]SR48968 competition binding assay. The conditions noted are these: [3H]SR48968 displacement, membranes of CHO cells stably expressing recombinant human NK2 receptor; Ki from IC50 by Cheng-Prussoff. Put shortly:
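Membranes from CHO cells stably expressing recombinant human NK2 were incubated 75 min at RT with [3H]SR48968 at its KD and 10 compound concentrations (0.0003–10 μM) in Tris-HCl pH 7.4, MnCl2, chymostatin, BSA. Filter-bound radioactivity was counted; Hill-fitted IC50 converted to Ki via Cheng-Prusoff.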
By Ki is commonly meant the dissociation constant of the complex between target and ligand, obtained from inhibition or displacement. With `CN(C(=O)Cc1ccc(F)cc1)[C@H]1CN(C(=O)c2ccc(N3CCOCC3)cc2)C[C@@H]1c1ccc(Cl)c(Cl)c1` (racemic) [Example 134, N-[(3RS,4SR)-4-(3,4-Dichloro-phenyl)-1-(4-morpholin-4-yl-benzoyl)-pyrrolidin-3-yl]-2-(4-fluoro-phenyl)-N-methyl-acetamide], the Ki came to 51.9 nM. Next, `COc1ncc(C(=O)N(C)[C@@H]2CN(C(=O)c3ccc(C#N)cc3)C[C@H]2c2ccc(Cl)c(Cl)c2)cn1` (racemic) [Example 76, rac-2-Methoxy-pyrimidine-5-carboxylic acid [(3S,4R)-1-(4-cyano-benzoyl)-4-(3,4-dichloro-phenyl)-pyrrolidin-3-yl]-methyl-amide]: 96 nM; `CN(C(=O)c1ccc(Cl)cc1)[C@@H]1CN(C(=O)N2CCN(S(C)(=O)=O)CC2)C[C@H]1c1ccc(Cl)c(Cl)c1` (racemic) [Example 12, rac-4-Chloro-N-[(3S,4R)-4-(3,4-dichloro-phenyl)-1-(4-methanesulfonyl-piperazine-1-carbonyl)-pyrrolidin-3-yl]-N-methyl-benzamide]: 2.75 nM. For `CN(C(=O)c1ccc(F)c(Cl)c1)[C@@H]1CN(C(=O)N2CCN(S(C)(=O)=O)CC2)C[C@H]1c1ccc(Cl)c(Cl)c1` (racemic) [Example 32, rac-3-Chloro-N-[(3S,4R)-4-(3,4-dichloro-phenyl)-1-(4-methanesulfonyl-piperazine-1-carbonyl)-pyrrolidin-3-yl]-4-fluoro-N-methyl-benzamide], the Ki turned out to be 4.57 nM. Next, `COCCN1CCC(C(=O)N2C[C@H](c3ccc(Cl)c(Cl)c3)[C@@H](N(C)C(=O)c3ccc(OC)c(C(F)(F)F)c3)C2)CC1` (racemic) [Example 144, N-{(3RS,4SR)-4-(3,4-Dichloro-phenyl)-1-[1-(2-methoxy-ethyl)-piperidine-4-carbonyl]-pyrrolidin-3-yl}-4-methoxy-N-methyl-3-trifluoromethyl-benzamide]: 0.9 nM; `CN(C(=O)c1cccc(F)c1)[C@@H]1CN(C(=O)N2CCN(S(C)(=O)=O)CC2)C[C@H]1c1ccc(Cl)c(Cl)c1` (racemic) [Example 17, rac-N-[(3S,4R)-4-(3,4-Dichloro-phenyl)-1-(4-methanesulfonyl-piperazine-1-carbonyl)-pyrrolidin-3-yl]-3-fluoro-N-methyl-benzamide]: 95.3 nM; `COc1ccc(C(=O)N(C)[C@@H]2CN(C(=O)c3cc(C)n(C)n3)C[C@H]2c2ccc(Cl)c(Cl)c2)cc1C(F)(F)F` (racemic) [Example 58, rac-N-[(3S,4R)-4-(3,4-Dichloro-phenyl)-1-(1,5-dimethyl-1H-pyrazole-3-carbonyl)-pyrrolidin-3-yl]-4-methoxy-N-methyl-3-trifluoromethyl-benzamide]: 8.52 nM. `COc1ccc(C(=O)N(C)[C@H]2CN(C(=O)C3CCN(C(=O)C4(C)CC4)CC3)C[C@@H]2c2ccc(Cl)c(Cl)c2)cc1C(F)(F)F` (racemic) [Example 96, N-{(3RS,4SR)-4-(3,4-Dichloro-phenyl)-1-[1-(1-methyl-cyclopropanecarbonyl)-piperidine-4-carbonyl]-pyrrolidin-3-yl}-4-methoxy-N-methyl-3-trifluoromethyl-benzamide]: the inhibitory constant (Ki) was 0.8 nM.

For the compound `CN(C(=O)c1cc(C(F)(F)F)ccn1)[C@H]1CN(C(=O)C2CCN(C(=O)C3(C)CC3)CC2)C[C@@H]1c1ccc(Cl)c(Cl)c1` (racemic) [Example 166, 4-Trifluoromethyl-pyridine-2-carboxylic acid {(3RS,4SR)-4-(3,4-dichloro-phenyl)-1-[1-(1-methyl-cyclopropanecarbonyl)-piperidine-4-carbonyl]-pyrrolidin-3-yl}-methyl-amide], the inhibition constant Ki stood at 0.7 nM. For `Cc1cncc(C(=O)N(C)[C@@H]2CN(C(=O)c3ccc(C#N)cc3)C[C@H]2c2ccc(Cl)c(Cl)c2)c1` (racemic) [Example 83, rac-N-[(3S,4R)-1-(4-Cyano-benzoyl)-4-(3,4-dichloro-phenyl)-pyrrolidin-3-yl]-5,N-dimethyl-nicotinamide] the value was 97.1 nM; for `COc1cc(C(=O)N(C)[C@H]2CN(C(=O)C3CCN(C(=O)C4(C)CC4)CC3)C[C@@H]2c2ccc(Cl)c(Cl)c2)ccc1Cl` (racemic) [Example 99, 4-Chloro-N-{(3RS,4SR)-4-(3,4-dichloro-phenyl)-1-[1-(1-methyl-cyclopropanecarbonyl)-piperidine-4-carbonyl]-pyrrolidin-3-yl}-3-methoxy-N-methyl-benzamide], 0.9 nM.

Consider `Cc1ccc(C(=O)N(C)[C@@H]2CN(C(=O)c3ccc(C#N)cc3)C[C@H]2c2ccc(Cl)c(Cl)c2)cn1` (racemic) [Example 77, rac-N-[(3S,4R)-1-(4-Cyano-benzoyl)-4-(3,4-dichloro-phenyl)-pyrrolidin-3-yl]-6,N-dimethyl-nicotinamide], for which the inhibitory constant (Ki) was determined as 28.8 nM.

Take `COc1ccc(C(=O)N(C)[C@@H]2CN(C(=O)N3CCN(S(C)(=O)=O)CC3)C[C@H]2c2ccc(Cl)c(Cl)c2)cc1` (racemic) [Example 37, rac-N-[(3S,4R)-4-(3,4-Dichloro-phenyl)-1-(4-methanesulfonyl-piperazine-1-carbonyl)-pyrrolidin-3-yl]-4-methoxy-N-methyl-benzamide]: the inhibitory constant (Ki) was determined as 8.89 nM. Turning to `CN(C(=O)c1ccc(Cl)c(C2CC2)c1)[C@@H]1CN(C(=O)C2CCN(C(=O)C3(C)CC3)CC2)C[C@H]1c1ccc(Cl)c(Cl)c1` [Example 176, 4-Chloro-3-cyclopropyl-N-{(3S,4R)-4-(3,4-dichloro-phenyl)-1-[1-(1-methyl-cyclopropanecarbonyl)-piperidine-4-carbonyl]-pyrrolidin-3-yl}-N-methyl-benzamide], the inhibition constant Ki stood at 0.6 nM. Take `C=C(F)CN1CCC(C(=O)N2C[C@H](c3ccc(Cl)c(Cl)c3)[C@@H](N(C)C(=O)c3ccc(OC)c(C(F)(F)F)c3)C2)CC1` (racemic) [Example 148, N-{(3RS,4SR)-4-(3,4-Dichloro-phenyl)-1-[1-(2-fluoro-allyl)-piperidine-4-carbonyl]-pyrrolidin-3-yl}-4-methoxy-N-methyl-3-trifluoromethyl-benzamide]: the Ki was 0.5 nM. For `CN(C(=O)Cc1ccc(F)cc1)C1CN(C(=O)C2CCN(CC3CC3)CC2)CC1c1ccc(Cl)c(Cl)c1` (racemic) [Example 143, N-[(3RS,4RS)-1-(1-Cyclopropylmethyl-piperidine-4-carbonyl)-4-(3,4-dichloro-phenyl)-pyrrolidin-3-yl]-2-(4-fluoro-phenyl)-N-methyl-acetamide] the value was 26.9 nM; for `CN(C(=O)c1cccc(Cl)c1)[C@@H]1CN(C(=O)N2CCN(S(C)(=O)=O)CC2)C[C@H]1c1ccc(Cl)c(Cl)c1` (racemic) [Example 11, rac-3-Chloro-N-[(3S,4R)-4-(3,4-dichloro-phenyl)-1-(4-methanesulfonyl-piperazine-1-carbonyl)-pyrrolidin-3-yl]-N-methyl-benzamide], 14.3 nM; for `CN(C(=O)c1cc(Cl)ccn1)[C@@H]1CN(C(=O)c2ccc(C#N)cc2)C[C@H]1c1ccc(Cl)c(Cl)c1` (racemic) [Example 59, rac-4-Chloro-pyridine-2-carboxylic acid [(3S,4R)-1-(4-cyano-benzoyl)-4-(3,4-dichloro-phenyl)-pyrrolidin-3-yl]-methyl-amide], 12.8 nM.
